In ChEMBL document CHEMBL1155743, “New bromoditerpenes from the red alga Sphaerococcus coronopifolius” (J Nat Prod, 2001):
Values after ≈ are worked out from the molar mass of the structure shown.

Columns and labels:
Staphylococcus aureus = test: Antibacterial activity against Staphylococcus aureus ATCC 6538 by disk diffusion assay; assay type: functional
Plasmodium falciparum = test: Antimalarial activity against chloroquine-resistant Plasmodium falciparum FCB1 in human blood by [3H]hypoxanthine uptake; assay type: functional, organism-based

Row | Compound | MIC (Staphylococcus aureus) | IC50 (Plasmodium falciparum)
1 | CC(C)[C@@H]1C=C[C@H](O)[C@H]2[C@@H]3[C@](C)(O)[C@@H](O)C[C@H](Br)[C@@]3(C)CC[C@@]21CBr | 0.146 µM (≈ 0.0701 µg/mL) | 
2 | CC(C)[C@@H]1C=CC(=O)[C@H]2[C@@H]3[C@](C)(O)[C@@H](O)C[C@H](Br)[C@@]3(C)CC[C@]12CBr [BROMOSPHAERONE] | 0.104 µM (≈ 0.0497 µg/mL) | 
3 | CC(C)[C@@H]1CC=C[C@H]2[C@H]3[C@@](C)(C=CC(=O)[C@@]3(C)O)CC[C@]12CBr [SPHAEROCOCCENOL A] |  | 1000 nM
